The subject of data set [1] is recombinant NL4-3 virus. Nature of the data set: HIV cell culture assay (antiviral activity, luciferase readout in infected MT-2 cells). It is filed as cell-based. To be noted: Human immunodeficiency virus 1, NL43, MT2. As to the method: HIV cell culture assay—MT-2 cells, 293T cells and the proviral DNA clone of NL4-3 virus were obtained from the NIH AIDS Research and Reference Reagent Program. MT-2 cells were propagated in RPMI 1640 media supplemented with 10% heat inactivated fetal bovine serum (FBS), 100 μg/ml penicillin G and up to 100 units/mL streptomycin. The 293T cells were propagated in DMEM media supplemented with 10% heat inactivated FBS, 100 μg/mL penicillin G and 100 μg/mL streptomycin. A recombinant NL4-3 proviral clone, in which a section of the nef gene was replaced with the Renilla luciferase gene, was used to make the reference virus used in these studies. The recombinant virus was prepared through transfection of the recombinant NL4-3 proviral clone into 293T cells using Transit-293 Transfection Reagent from Mirus Bio LLC (Madison, WI). Supernatant was harvested after 2-3 days and the amount of virus present was titered in MT-2 cells using luciferase enzyme activity as a marker by measuring luciferase enzyme activity. Luciferase was quantitated using the EnduRen Live Cell Substrate from Promega (Madison, WI). Antiviral activities of compounds toward the recombinant virus were quantified by measuring luciferase activity in MT-2 cells infected for 4-5 days with the recombinant virus in the presence of serial dilutions of the compound.
The 50% effective concentration (EC50) was calculated by using the exponential form of the median effect equation where (Fa)=1/[1+(ED50/drug conc.)m] (Johnson VA, Byington RT. Infectivity Assay. In Techniques in HIV Research. ed. Aldovini A, Walker BD. 71-76. New York: Stockton Press.1990). Curve fitting and analysis were performed with ActivityBase XE Runner software version 9.1.0.4 using model 203 (ID Business Solutions, LTD, Guildford, UK).

Data set [2] can be described thus: Compound cytotoxicity, XTT-based colorimetric assay. It is filed as cell-based. The conditions noted are these: human; uninfected MT2 cells, day 4, XTT assay. The protocol: Compound cytotoxicity and the corresponding CC50 values were determined using the same protocol as described in the antiviral assay except that uninfected cells were used. Cytotoxicity was assessed on day 4 in uninfected MT2 cells by using an XTT (2,3-bis[2-Methoxy-4-nitro-5-sulfophenyl]-2H-tetrazolium-5-carboxyanilide inner salt)-based colorimetric assay (Sigma-Aldrich, St Louis, Mo).

SMILES strings stand for the structures.

On to `CN(CCCOc1ccc2c(=O)n(-c3ccc(Cl)c4c(NS(C)(=O)=O)nn(C)c34)c([C@H](Cc3cc(F)cc(F)c3)NC(=O)Cn3nc(C(F)F)c4c3C(F)(F)[C@@H]3C[C@H]43)nc2n1)CC(F)(F)F` (atropisomer, axis not shown; (P)) [Example 11, N-((S)-1-((3P)-3-(4-chloro-1-methyl-3-(methylsulfonamido)-1H-indazol-7-yl)-7-(3-(methyl(2,2,2-trifluoroethyl)amino)propoxy)-4-oxo-3,4-dihydropyrido[2,3-d]pyrimidin-2-yl)-2-(3,5-difluorophenyl)ethyl)-2-((3bS,4aR)-3-(difluoromethyl)-5,5-difluoro-3b,4,4a,5-tetrahydro-1H-cyclopropa[3,4]cyclopenta[1,2-c]pyrazol-1-yl)acetamide], for which, in data set [1], the EC50 was 27 pM. This compound also returned a CC50 at 4 day in data set [2] of more than 100000 pM.

Take `Cn1nc(NS(C)(=O)=O)c2c(Cl)ccc(-n3c([C@H](Cc4cc(F)cc(F)c4)NC(=O)Cn4nc(C(F)F)c5c4C(F)(F)[C@@H]4C[C@H]54)nc4nc(OCC(F)(F)C(F)(F)F)ccc4c3=O)c21` (atropisomer, axis not shown; (P)) [Example 18, N-(1-((3P,3P)-3-(4-chloro-1-methyl-3-(methylsulfonamido)-1H-indazol-7-yl)-4-oxo-7-(2,2,3,3,3-pentafluoropropoxy)-3,4-dihydropyrido[2,3-d]pyrimidin-2-yl)-2-(3,5-difluorophenyl)ethyl)-2-((3bS,4aR)-3-(difluoromethyl)-5,5-difluoro-3b,4,4a,5-tetrahydro-1H-cyclopropa[3,4]cyclopenta[1,2-c]pyrazol-1-yl)acetamide]: in data set [1], the EC50 was found to be 31 pM. For the same compound, in data set [2], the CC50 at 4 day was more than 100000 pM.

As for `Cn1nc(NS(C)(=O)=O)c2c(Cl)ccc(-n3c([C@H](Cc4cc(F)cc(F)c4)NC(=O)Cn4nc(C(F)F)c5c4C(F)(F)[C@@H]4C[C@H]54)nc4nc(OCc5nccn5C(F)F)ccc4c3=O)c21` (atropisomer, axis not shown; (P)) [Example 28, N-((S)-1-((3P)-3-(4-chloro-1-methyl-3-(methylsulfonamido)-1H-indazol-7-yl)-7-((1-(difluoromethyl)-1H-imidazol-2-yl)methoxy)-4-oxo-3,4-dihydropyrido[2,3-d]pyrimidin-2-yl)-2-(3,5-difluorophenyl)ethyl)-2-((3bS,4aR)-3-(difluoromethyl)-5,5-difluoro-3b,4,4a,5-tetrahydro-1H-cyclopropa[3,4]cyclopenta[1,2-c]pyrazol-1-yl)acetamide], the concentration for a half-maximal effect (EC50) in data set [1] was 870 pM. Further, the CC50 at 4 day in data set [2] is more than 100000 pM.

As to `Cn1nc(NS(C)(=O)=O)c2c(Cl)ccc(-n3c([C@H](Cc4cc(F)cc(F)c4)NC(=O)Cn4nc(C(F)F)c5c4C(F)(F)[C@@H]4C[C@H]54)nc4nc(OCCOCC(F)(F)F)ccc4c3=O)c21` (atropisomer, axis not shown; (P)) [Example 26, N-((S)-1-((3P)-3-(4-chloro-1-methyl-3-(methylsulfonamido)-1H-indazol-7-yl)-4-oxo-7-(2-(2,2,2-trifluoroethoxy)ethoxy)-3,4-dihydropyrido[2,3-d]pyrimidin-2-yl)-2-(3,5-difluorophenyl)ethyl)-2-((3bS,4aR)-3-(difluoromethyl)-5,5-difluoro-3b,4,4a,5-tetrahydro-1H-cyclopropa[3,4]cyclopenta[1,2-c]pyrazol-1-yl)acetamide], the half-maximal effective concentration (EC50) in data set [1] was 24 pM. The CC50 at 4 day in data set [2] is more than 100000 pM.

For the compound `Cn1cc(CCOc2ccc3c(=O)n(-c4ccc(Cl)c5c(NS(C)(=O)=O)nn(C)c45)c([C@H](Cc4cc(F)cc(F)c4)NC(=O)Cn4nc(C(F)F)c5c4C(F)(F)[C@@H]4C[C@H]54)nc3n2)cn1` (atropisomer, axis not shown; (P)) [Example 12, N-((S)-1-((3P,3P)-3-(4-chloro-1-methyl-3-(methylsulfonamido)-1H-indazol-7-yl)-7-(2-(1-methyl-1H-pyrazol-4-yl)ethoxy)-4-oxo-3,4-dihydropyrido[2,3-d]pyrimidin-2-yl)-2-(3,5-difluorophenyl)ethyl)-2-((3bS,4aR)-3-(difluoromethyl)-5,5-difluoro-3b,4,4a,5-tetrahydro-1H-cyclopropa[3,4]cyclopenta[1,2-c]pyrazol-1-yl)acetamide], the EC50 in data set [1] came out at 140 pM. In data set [2], the half-maximal cytotoxic concentration (CC50) at 4 day is more than 100000 pM.

Regarding `COC(C)(C)CCOc1ccc2c(=O)n(-c3ccc(Cl)c4c(NS(C)(=O)=O)nn(C)c34)c([C@H](Cc3cc(F)cc(F)c3)NC(=O)Cn3nc(C(F)F)c4c3C(F)(F)[C@@H]3C[C@H]43)nc2n1` (atropisomer, axis not shown; (P)) [Example 15, N-((S)-1-((3P)-3-(4-chloro-1-methyl-3-(methylsulfonamido)-1H-indazol-7-yl)-7-(3-methoxy-3-methylbutoxy)-4-oxo-3,4-dihydropyrido[2,3-d]pyrimidin-2-yl)-2-(3,5-difluorophenyl)ethyl)-2-((3bS,4aR)-3-(difluoromethyl)-5,5-difluoro-3b,4,4a,5-tetrahydro-1H-cyclopropa[3,4]cyclopenta[1,2-c]pyrazol-1-yl)acetamide], the EC50 in data set [1] was determined as 19 pM. In data set [2], this compound returned a CC50 at 4 day of more than 500000 pM.

Turning to `Cc1cnc(COc2ccc3c(=O)n(-c4ccc(Cl)c5c(NS(C)(=O)=O)nn(C)c45)c([C@H](Cc4cc(F)cc(F)c4)NC(=O)Cn4nc(C(F)F)c5c4C(F)(F)[C@@H]4C[C@H]54)nc3n2)nc1` (atropisomer, axis not shown; (P)) [Example 8, N-((S)-1-((3P,3P)-3-(4-chloro-1-methyl-3-(methylsulfonamido)-1H-indazol-7-yl)-7-((5-methylpyrimidin-2-yl)methoxy)-4-oxo-3,4-dihydropyrido[2,3-d]pyrimidin-2-yl)-2-(3,5-difluorophenyl)ethyl)-2-((3bS,4aR)-3-(difluoromethyl)-5,5-difluoro-3b,4,4a,5-tetrahydro-1H-cyclopropa[3,4]cyclopenta[1,2-c]pyrazol-1-yl)acetamide], the EC50 in data set [1] was 49 pM. In data set [2], this compound returned a CC50 at 4 day of more than 100000 pM.

Regarding `Cn1nc(NS(C)(=O)=O)c2c(Cl)ccc(-n3c([C@H](Cc4cc(F)cc(F)c4)NC(=O)Cn4nc(C(F)F)c5c4C(F)(F)[C@@H]4C[C@H]54)nc4nc(OC5CCC(F)(F)CC5)ccc4c3=O)c21` (atropisomer, axis not shown; (P)) [Example 35, N-((S)-1-((3P)-3-(4-chloro-1-methyl-3-(methylsulfonamido)-1H-indazol-7-yl)-7-((4,4-difluorocyclohexyl)oxy)-4-oxo-3,4-dihydropyrido[2,3-d]pyrimidin-2-yl)-2-(3,5-difluorophenyl)ethyl)-2-((3bS,4aR)-3-(difluoromethyl)-5,5-difluoro-3b,4,4a,5-tetrahydro-1H-cyclopropa[3,4]cyclopenta[1,2-c]pyrazol-1-yl)acetamide], in data set [1], the EC50 was 54 pM. For the same compound, the CC50 at 4 day in data set [2] was more than 100000 pM.

In the case of `Cn1nc(NS(C)(=O)=O)c2c(Cl)ccc(-n3c([C@H](Cc4cc(F)cc(F)c4)NC(=O)Cn4nc(C(F)F)c5c4C(F)(F)[C@@H]4C[C@H]54)nc4nc(OCC(F)(F)C(F)F)ccc4c3=O)c21` (atropisomer, axis not shown; (P)) [Example 27, N-((S)-1-((3P,3P)-3-(4-chloro-1-methyl-3-(methylsulfonamido)-1H-indazol-7-yl)-4-oxo-7-(2,2,3,3-tetrafluoropropoxy)-3,4-dihydropyrido[2,3-d]pyrimidin-2-yl)-2-(3,5-difluorophenyl)ethyl)-2-((3bS,4aR)-3-(difluoromethyl)-5,5-difluoro-3b,4,4a,5-tetrahydro-1H-cyclopropa[3,4]cyclopenta[1,2-c]pyrazol-1-yl)acetamide], the EC50 in data set [1] was found to be 22 pM. The compound further displayed a 50% cytotoxic concentration (CC50) at 4 day in data set [2] of more than 100000 pM.

As for `Cn1nc(NS(C)(=O)=O)c2c(Cl)ccc(-n3c([C@H](Cc4cc(F)cc(F)c4)NC(=O)Cn4nc(C(F)F)c5c4C(F)(F)[C@@H]4C[C@H]54)nc4nc(OCc5ccncc5)ccc4c3=O)c21` (atropisomer, axis not shown; (P)) [Example 2, N-((S)-1-((3P,3P)-3-(4-chloro-1-methyl-3-(methylsulfonamido)-1H-indazol-7-yl)-4-oxo-7-(pyridin-4-ylmethoxy)-3,4-dihydropyrido[2,3-d]pyrimidin-2-yl)-2-(3,5-difluorophenyl)ethyl)-2-((3bS,4aR)-3-(difluoromethyl)-5,5-difluoro-3b,4,4a,5-tetrahydro-1H-cyclopropa[3,4]cyclopenta[1,2-c]pyrazol-1-yl)acetamide], the EC50 in data set [1] amounted to 60 pM. The same compound returned a CC50 at 4 day in data set [2] of more than 100000 pM.
